Holding throughout (assay type): functional
The subject of experiment [1] is Staphylococcus aureus. Kind of experiment: Antibacterial activity against Staphylococcus aureus ATCC 25923 assessed as growth inhibition at 1000 ug/mL after 24 hrs by agar well plate method. Conditions: ATCC 25923, 24 h, read-out: DIZ.
The test system of experiment [2] is Radical scavenging activity. The experiment can be described thus: Antioxidant activity assessed as DPPH free radical scavenging activity after 20 mins by UV-visible spectrophotometric analysis. On the technique in general: Loss of DPPH colour is used to gauge radical scavenging.
Experiment [3] in a line: Antioxidant activity assessed as cupric ion reducing activity at 10 uM after 30 mins by CUPRAC assay.
In experiment [4] the test system is Staphylococcus aureus. Kind of experiment: Antibacterial activity against Staphylococcus aureus ATCC 25923 assessed as growth inhibition at 500 ug/mL after 24 hrs by agar well plate method. The conditions noted are these: ATCC 25923, 24 h, read-out: DIZ.
Experiment [5] deals with Candida albicans. The experiment can be described thus: Antifungal activity against Candida albicans MTCC 3017 assessed as growth inhibition at 1000 ug/mL after 72 hrs by agar well plate method. Conditions: MTCC 3017, 72 h, read-out: DIZ.
Experiment [6] relates to Aspergillus flavus. Kind of experiment: Antifungal activity against Aspergillus flavus MTCC 3306 assessed as growth inhibition at 1000 ug/mL after 72 hrs by agar well plate method. The conditions noted are these: MTCC 3306, 72 h, read-out: DIZ.
Experiment [7] has as its system Candida albicans. The experiment can be described thus: Antifungal activity against Candida albicans MTCC 3017 assessed as growth inhibition at 500 ug/mL after 72 hrs by agar well plate method. The conditions noted are these: MTCC 3017, 72 h, read-out: DIZ.
The nature of experiment [8]: Antioxidant activity assessed as ferric ion reducing activity at 10 uM after 20 mins by FRAP assay.
Experiment [9] has as its system Pseudomonas aeruginosa. Kind of experiment: Antibacterial activity against Pseudomonas aeruginosa ATCC 27853 assessed as growth inhibition at 500 ug/mL after 24 hrs by agar well plate method. The conditions noted are these: ATCC 27853, 24 h, read-out: DIZ.
Experiment [10] deals with Aspergillus flavus. The experiment can be described thus: Antifungal activity against Aspergillus flavus MTCC 3306 assessed as growth inhibition at 500 ug/mL after 72 hrs by agar well plate method. The conditions noted are these: MTCC 3306, 72 h, read-out: DIZ.
Experiment [11] relates to Escherichia coli. The experiment can be described thus: Antibacterial activity against Escherichia coli ATCC 25922 assessed as growth inhibition at 500 ug/mL after 24 hrs by agar well plate method. Conditions: ATCC 25922, 24 h, read-out: DIZ.
Experiment [12] in a line: Antifungal activity against Chrysosporium keratinophilum MTCC 2827 assessed as growth inhibition at 1000 ug/mL after 72 hrs by agar well plate method.
The nature of experiment [13]: Antioxidant activity assessed as ABTS free radical scavenging activity after 30 mins.
Experiment [14] deals with Pseudomonas aeruginosa. The experiment can be described thus: Antibacterial activity against Pseudomonas aeruginosa ATCC 27853 assessed as growth inhibition at 1000 ug/mL after 24 hrs by agar well plate method. The conditions noted are these: ATCC 27853, 24 h, read-out: DIZ.
Experiment [15] concerns Escherichia coli. Kind of experiment: Antibacterial activity against Escherichia coli ATCC 25922 assessed as growth inhibition at 1000 ug/mL after 24 hrs by agar well plate method. The conditions noted are these: ATCC 25922, 24 h, read-out: DIZ.
Experiment [16] in a line: Antifungal activity against Chrysosporium keratinophilum MTCC 2827 assessed as growth inhibition at 500 ug/mL after 72 hrs by agar well plate method.

For orientation: IC50 means the concentration needed to halve the response being measured. Regarding `COc1ccc(C2CC(=NOC(=O)c3cccc(Cl)c3)CC(c3ccc(OC)cc3)N2C)cc1` (stereo unspecified), the zone of inhibition at 1000 µg/mL in the experiment with Staphylococcus aureus [1] worked out at 9 mm; in the experiment on Candida albicans [5] it was 10 mm; with Aspergillus flavus [6], 7 mm; in the experiment on Pseudomonas aeruginosa [14], 11 mm; in the experiment on Escherichia coli [15] it was 12 mm. For the same compound, the IC50 in experiment [2] amounted to 186 µM; in [13] it was 136 µM. Moreover, the results for the Activity in experiment [3] and in [8] were 0.179 and 0.243, respectively. The zone of inhibition at 500 µg/mL with Staphylococcus aureus [4] was 7 mm; in the experiment with Candida albicans [7], 7 mm; in the experiment on Pseudomonas aeruginosa [9], 8 mm; in the experiment on Aspergillus flavus [10], 6 mm; with Escherichia coli [11], 7 mm. The inhibition zone (IZ) is 7 mm in experiment [12] and 5 mm in experiment [16].
Turning to `COc1ccc(C2CC(=NOC(=O)c3ccccc3OC(C)=O)CC(c3ccc(OC)cc3)N2C)cc1` (stereo unspecified), the zone of inhibition at 1000 µg/mL is 5 mm in the experiment with Staphylococcus aureus [1]; 4 mm with Candida albicans [5]; 2 mm with Aspergillus flavus [6]; 5 mm in the experiment on Pseudomonas aeruginosa [14]; 4 mm in the experiment with Escherichia coli [15]. The IC50 in experiment [2] worked out at 132 µM; in [13] it was 350 µM. Moreover, the Activity amounted to 0.131 in experiment [3] and 0.179 in experiment [8]. The zone of inhibition at 500 µg/mL was 2 mm in the experiment with Staphylococcus aureus [4]; 5 mm in the experiment on Candida albicans [7]; 4 mm in the experiment with Pseudomonas aeruginosa [9]; 1 mm with Aspergillus flavus [10]; 2 mm in the experiment on Escherichia coli [11]. In addition, the results for the inhibition zone (IZ) in [12] and in experiment [16] were 3 mm and 2 mm, respectively.
For `COc1ccc(C2CC(=NOC(=O)c3ccc(Cl)cc3)CC(c3ccc(OC)cc3)N2C)cc1` (stereo unspecified), the zone of inhibition at 1000 µg/mL with Staphylococcus aureus [1] stood at 12 mm; in the experiment with Candida albicans [5] it was 11 mm; in the experiment with Aspergillus flavus [6], 8 mm; in the experiment with Pseudomonas aeruginosa [14], 16 mm; in the experiment on Escherichia coli [15] it was 16 mm. Moreover, the IC50 in [2] was 98 µM; in experiment [13], 135 µM. In addition, the Activity in experiment [3] was 0.192; in [8], 0.258. Besides, the zone of inhibition at 500 µg/mL stood at 8 mm in the experiment with Staphylococcus aureus [4]; 10 mm in the experiment on Candida albicans [7]; 12 mm in the experiment with Pseudomonas aeruginosa [9]; 5 mm in the experiment with Aspergillus flavus [10]; 10 mm in the experiment on Escherichia coli [11]. Further, the inhibition zone (IZ) was determined as 8 mm in experiment [12] and 7 mm in [16].
On to `COc1ccc(C2CC(=NOC(=O)c3cc(OC)c(OC)c(OC)c3)CC(c3ccc(OC)cc3)N2C)cc1` (stereo unspecified), for which the zone of inhibition at 1000 µg/mL with Staphylococcus aureus [1] was 5 mm; with Candida albicans [5], 3 mm; with Aspergillus flavus [6], 2 mm; with Pseudomonas aeruginosa [14], 5 mm; with Escherichia coli [15] it was 4 mm. The values for the IC50 in [2] and in experiment [13] were 71 µM and 93 µM, respectively. In addition, the Activity in [3] stood at 0.232; in [8], 0.286. Moreover, the zone of inhibition at 500 µg/mL in the experiment with Staphylococcus aureus [4], with Candida albicans [7], with Pseudomonas aeruginosa [9], with Aspergillus flavus [10] and in the experiment on Escherichia coli [11] was 3 mm each time. Further, the figures for the inhibition zone (IZ) in experiment [12] and in experiment [16] were 5 mm and 2 mm, respectively.
With `COc1ccc(C2CC(=NOC(=O)c3ccc(OC)cc3OC)CC(c3ccc(OC)cc3)N2C)cc1` (stereo unspecified), the zone of inhibition at 1000 µg/mL was determined as 4 mm in the experiment with Staphylococcus aureus [1]; 6 mm in the experiment with Candida albicans [5]; 4 mm in the experiment with Aspergillus flavus [6]; 6 mm in the experiment with Pseudomonas aeruginosa [14]; 5 mm with Escherichia coli [15]. Further, the values for the IC50 in experiment [2] and in [13] were 56 µM and 80 µM, respectively. For the same compound, the Activity in [3] is 0.236; in [8] it was 0.296. Moreover, the zone of inhibition at 500 µg/mL in the experiment with Staphylococcus aureus [4] stood at 2 mm; in the experiment on Candida albicans [7], 4 mm; in the experiment on Pseudomonas aeruginosa [9], 6 mm; in the experiment on Aspergillus flavus [10], 3 mm; in the experiment on Escherichia coli [11] it was 3 mm. Further, the inhibition zone (IZ) is 4 mm in experiment [12] and 3 mm in experiment [16].
For `COc1ccc(C2CC(=NOC(=O)c3cc(O)c(O)c(O)c3)CC(c3ccc(OC)cc3)N2C)cc1` (stereo unspecified), the zone of inhibition at 1000 µg/mL with Staphylococcus aureus [1] came to 5 mm; with Candida albicans [5], 8 mm; with Aspergillus flavus [6], 3 mm; in the experiment with Pseudomonas aeruginosa [14], 4 mm; in the experiment on Escherichia coli [15], 6 mm. Further, the 50% inhibitory concentration (IC50) in experiment [2] came out at 11 µM; in experiment [13] it was 18 µM. Further, the values for the Activity in [3] and in [8] were 0.361 and 0.373, respectively. Moreover, the zone of inhibition at 500 µg/mL with Staphylococcus aureus [4] was 3 mm; in the experiment with Candida albicans [7] it was 6 mm; in the experiment with Pseudomonas aeruginosa [9] it was 3 mm; in the experiment on Aspergillus flavus [10] it was 1 mm; in the experiment on Escherichia coli [11] it was 4 mm. Moreover, the inhibition zone (IZ) amounted to 3 mm in experiment [12] and 2 mm in experiment [16].
In the case of `COc1ccc(C2CC(=NOC(=O)c3ccc([N+](=O)[O-])cc3)CC(c3ccc(OC)cc3)N2C)cc1` (stereo unspecified), the zone of inhibition at 1000 µg/mL in the experiment on Staphylococcus aureus [1] was 7 mm; in the experiment with Candida albicans [5], 6 mm; in the experiment on Aspergillus flavus [6] it was 3 mm; with Pseudomonas aeruginosa [14] it was 8 mm; in the experiment on Escherichia coli [15], 7 mm. Further, the IC50 in experiment [2] worked out at 120 µM; in experiment [13], 280 µM. The Activity in experiment [3] amounted to 0.157; in experiment [8], 0.216. For the same compound, the zone of inhibition at 500 µg/mL worked out at 3 mm in the experiment with Staphylococcus aureus [4]; 7 mm with Candida albicans [7]; 5 mm in the experiment with Pseudomonas aeruginosa [9]; 2 mm in the experiment with Aspergillus flavus [10]; 3 mm with Escherichia coli [11]. The inhibition zone (IZ) in experiment [12] worked out at 4 mm; in experiment [16], 3 mm.
On to `COc1ccc(C2CC(=NOC(=O)c3ccc(C)cc3)CC(c3ccc(OC)cc3)N2C)cc1` (stereo unspecified), for which the zone of inhibition at 1000 µg/mL in the experiment with Staphylococcus aureus [1] amounted to 3 mm; with Candida albicans [5] it was 2 mm; in the experiment with Aspergillus flavus [6], 2 mm; in the experiment with Pseudomonas aeruginosa [14] it was 2 mm; in the experiment on Escherichia coli [15], 3 mm. Moreover, the values for the IC50 in [2] and in experiment [13] were 143 µM and 368 µM, respectively. Further, the Activity in [3] is 0.127; in experiment [8] it was 0.154. The zone of inhibition at 500 µg/mL in the experiment with Staphylococcus aureus [4] is 1 mm; with Candida albicans [7] it was 1 mm; in the experiment on Pseudomonas aeruginosa [9], 2 mm; in the experiment with Aspergillus flavus [10], 1 mm; in the experiment on Escherichia coli [11], 1 mm. The inhibition zone (IZ) in [12] was found to be 1 mm; in experiment [16], 2 mm.
For the compound `CN[C@@H]1[C@H](O[C@H]2[C@H](O[C@H]3[C@H](O)[C@@H](O)[C@H](N=C(N)N)[C@@H](O)[C@@H]3N=C(N)N)O[C@@H](C)[C@]2(O)C=O)O[C@@H](CO)[C@H](O)[C@H]1O` [STREPTOMYCIN], the zone of inhibition at 1000 µg/mL was 15 mm in the experiment on Staphylococcus aureus [1], 16 mm with Pseudomonas aeruginosa [14] and 16 mm with Escherichia coli [15]. The zone of inhibition at 500 µg/mL in the experiment on Staphylococcus aureus [4] was 10 mm; with Pseudomonas aeruginosa [9] it was 13 mm; in the experiment on Escherichia coli [11], 10 mm.
Consider `COc1ccc(C2CC(=NOC(=O)c3ccc(F)cc3)CC(c3ccc(OC)cc3)N2C)cc1` (stereo unspecified), for which the zone of inhibition at 1000 µg/mL in the experiment with Staphylococcus aureus [1] stood at 13 mm; in the experiment with Candida albicans [5], 16 mm; with Aspergillus flavus [6], 12 mm; in the experiment with Pseudomonas aeruginosa [14] it was 19 mm; in the experiment with Escherichia coli [15] it was 17 mm. The IC50 in [2] came to 86 µM; in [13], 152 µM. The Activity was 0.163 in experiment [3] and 0.236 in experiment [8]. The zone of inhibition at 500 µg/mL with Staphylococcus aureus [4] turned out to be 9 mm; in the experiment with Candida albicans [7] it was 10 mm; in the experiment with Pseudomonas aeruginosa [9], 15 mm; in the experiment on Aspergillus flavus [10], 10 mm; with Escherichia coli [11], 12 mm. Moreover, the inhibition zone (IZ) stood at 9 mm in experiment [12] and 7 mm in experiment [16].
Turning to `OC(Cn1cncn1)(Cn1cncn1)c1ccc(F)cc1F` [FLUCONAZOLE], the results for the zone of inhibition at 1000 µg/mL in the experiment on Candida albicans [5] and in the experiment with Aspergillus flavus [6] were 22 mm and 13 mm, respectively. Besides, the values for the zone of inhibition at 500 µg/mL with Candida albicans [7] and in the experiment on Aspergillus flavus [10] were 20 mm and 11 mm, respectively. The inhibition zone (IZ) in experiment [12] amounted to 17 mm; in [16] it was 15 mm.

The values above are taken from ChEMBL document CHEMBL2429721, “Novel 2,6-bis(4-methoxyphenyl)-1-methylpiperidin-4-one oxime esters: synthesis and a new insight into their antioxidant and antimicrobial potential” (Med Chem Res, 2013).
